According to patent US10030016B2 (Sunesis Pharmaceuticals, Inc., priority 2009, dated 2018):
Structures can show the parent of a compound that is named as a salt. Where two headings read alike, the source gives them in different places.

Assays:
PDK1 = PDK1 (Homo sapiens (Human), UniProt O15530); assay: PDK1 kinase assay (coupled PDK1/AKT/FAM-crosstide assay, IMAP fluorescence polarization); assay type: biochemical
Procedure, shortened: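 GST-tagged human PDK1 (aa 51-359, 0.75 nM) from insect cells activated unphosphorylated GST-AKT2 (aa 140-467–PIFtide fusion, 10 nM), which phosphorylated 100 nM FAM-crosstide; 40 μM ATP, pH 7.2 Tris/MgCl2, 30 min at 25° C. IMAP fluorescence polarization read-out; ΔmP versus compound concentration fitted with a 4-parameter curve.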

[1] = system: phospho-akt (Thr308) in PC-3 cells; assay: Inhibition of phospho-akt (Thr308) in PC-3 cells, MSD phospho-akt 308 ELISA kit; assay type: cell-based; settings: 2 hours, no serum, read-out: EC50
Procedure, shortened: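 Read-out is MSD electrochemiluminescence of Akt phosphorylated at Thr308 in lysates of PC-3 cells treated 2 h with compound in serum-free medium. Wortmannin at 5 μM defined the low control and DMSO the high control.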

[2] = inhibition of phospo-PDK1 in vitro
[3] = Homo sapiens, inhibition of P308 Akt in PC-3 cells, MSD
[4] = Homo sapiens, inhibition of P308 Akt in PC-3 cells using MSD

Chain of PDK1 (O15530 51-359): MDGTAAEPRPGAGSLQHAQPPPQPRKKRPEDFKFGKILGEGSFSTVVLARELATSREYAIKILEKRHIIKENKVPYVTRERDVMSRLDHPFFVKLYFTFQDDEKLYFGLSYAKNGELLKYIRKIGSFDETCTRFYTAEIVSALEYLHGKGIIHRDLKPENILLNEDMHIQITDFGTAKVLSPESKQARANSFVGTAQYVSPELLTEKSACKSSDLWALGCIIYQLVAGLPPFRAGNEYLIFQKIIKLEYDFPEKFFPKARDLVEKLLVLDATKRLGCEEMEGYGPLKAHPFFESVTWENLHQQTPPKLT

IC50 (PDK1; [2])	EC50 [1, 3]	IC50 (PDK1; inhibition of PDK1 in vitro)	EC50 [1, 4]	Compound	further results
1000 to 5000 nM	1000 to 10000 nM			O=C(NCC1CCCC1)c1cccnc1NCc1ccc(-c2c[nH]c3ncccc23)s1 [Example 1.19, 2-(((5-(1H-pyrrolo[2,3-b]pyridin-3-yl)thiophen-2-yl)methyl)amino)-N-4-(cyclopentylmethyl) nicotinamide]	
		< 100 nM	1000 to 10000 nM	C[C@H](NC(=O)c1cc(C#N)cnc1Nc1ccc(-c2cnc3[nH]nc(N)c3c2)cc1)c1ccc(F)cc1 [Example 424, (S)-2-(4-(3-amino-1H-pyrazolo[3,4-b]pyridin-5-yl)phenylamino)-5-cyano-N-(1-(4-fluorophenyl)ethyl)nicotinamide]	
		< 100 nM	< 1000 nM	Nc1ncc(-c2ccc(CNc3ncc(C(F)(F)F)cc3C(=O)Nc3ccc(F)cc3)cc2)nc1N1CCC[C@H](N)C1 [Example 196]	
		< 100 nM		C[C@H](NC(=O)c1cc(C#N)cnc1NCc1ccc(-c2cnc(N)c(C(=O)NCC(O)CO)n2)cc1)c1ccc(F)cc1 (stereo partly drawn) [Example 347, 3-amino-6-(4-((5-cyano-3-((S)-1-(4-fluorophenyl)ethylcarbamoyl)pyridin-2-ylamino)methyl)phenyl)-N-(2,3-dihydroxypropyl) pyrazine-2-carboxamide]	EC50 ([1]; inhibition of P308 Akt in PC-3 cells using MSD): < 1000 nM
1000 to 5000 nM	> 10000 nM			C[C@H](NC(=O)c1cccnc1NCc1ccc(-c2ccc3nc(N)[nH]c3c2)s1)c1ccc(F)cc1 [Example 2.21, (S)-2-(((5-(2-amino-1H-benzo[d]imidazol-6-yl)thiophen-2-yl)methyl)amino)-N-(1-(4-fluorophenyl)ethyl)nicotinamide]	
		< 100 nM	< 1000 nM	C[C@H](NC(=O)c1nc(C#N)cnc1NCc1ccc(-c2cnc3[nH]nc(N(C)C)c3c2)cc1)c1ccc(F)c(F)c1 [Example 62, (S)-6-cyano-N-(1-(3,4-difluorophenyl)ethyl)-3-(4-(3-(dimethylamino)-1H-pyrazolo[3,4-b]pyridin-5-yl)benzylamino)pyrazine-2-carboxamide]	
		> 5000 nM	1000 to 10000 nM	CNc1ncc2cc(O[C@H](C)CNc3ncc(C#N)cc3C(=O)N[C@@H](C)c3ccc(F)cc3)ccc2n1 [Example 251, 5-cyano-N-((S)-1-(4-fluorophenyl)ethyl)-2-((R)-2-(2-(methylamino)quinazolin-6-yloxy)propylamino)nicotinamide]	
< 100 nM	< 1000 nM			C[C@@H](c1ccc(F)cc1)n1cnc2ccnc(NCc3ccc(-c4ccc5ncnc(N)c5c4)s3)c2c1=O [Ex. 7.9]	
		100 to 1000 nM		C[C@H](NC(=O)c1cc(C#N)cnc1NCc1ccc(-c2cnc(N)c(CCCN)n2)nc1)c1ccc(F)cc1 [Example 74, 2-({6-[5-Amino-6-(3-amino-propyl)-pyrazin-2-yl]-pyridin-3-ylmethyl}-amino)-5-cyano-N-[(S)-1-(4-fluoro-phenyl)-ethyl]-nicotinamide]	EC50 ([1]; Homo sapiens, PC-3, 2 h, inhibition of P308 Akt in PC-3 cells using MSD): 1000 to 10000 nM
		< 100 nM	1000 to 10000 nM	Nc1n[nH]c2ncc(-c3ccc(CNc4ncc(C(F)(F)F)cc4C(=O)Nc4ccccn4)cc3)cc12 [Example 274]	
		< 100 nM	1000 to 10000 nM	Nc1ccc(-c2ccc(CNc3nccc4ncn(Cc5ccc(F)c(F)c5)c(=O)c34)cc2)cn1 [Example 374, 5-(4-(6-aminopyridin-3-yl)benzylamino)-3-(3,4-difluorobenzyl)pyrido[4,3-d] pyrimidin-4(3H)-one]	
100 to 1000 nM	1000 to 10000 nM			C[C@H](NC(=O)c1cccnc1NCc1ccc(-c2ccc3ncnc(N)c3c2)s1)c1ccc(F)cn1 [Example 3.66, 2-({[5-(4-aminoquinazolin-6-yl)thiophen-2-yl]methyl}amino)-N-[(1S)-1-(5-fluoropyridin-2-yl)ethyl] pyridine-3-carboxamide (TFA salt)]	
100 to 1000 nM	1000 to 10000 nM			C[C@H](NC(=O)c1cccnc1NCc1ccc(-c2ccc3ncnc(N)c3c2)s1)c1cccnc1 [Example 3.60, (S)-2-(((5-(4-aminoquinazolin-6-yl)thiophen-2-yl)methyl)amino)-N-(1-(pyridin-3-yl)ethyl) nicotinamide (TFA salt)]	
		< 100 nM	< 1000 nM	CNc1ncc2cc(OCCNc3ncc(C#N)cc3C(=O)N[C@@H](C)c3ccc(F)cc3)ccc2n1 [Example 250, (S)-5-cyano-N-(1-(4-fluorophenyl)ethyl)-2-(2-(2-(methylamino)quinazolin-6-yloxy)ethylamino)nicotinamide]	
		> 5000 nM	> 10000 nM	C[C@H](NC(=O)c1cccnc1Nc1ccc(-c2ccc3ncnc(N)c3c2)s1)c1ccc(F)c(F)c1 [Example 51, (S)-2-(5-(4-aminoquinazolin-6-yl)thiophen-2-ylamino)-N-(1-(3,4-difluorophenyl)ethyl)nicotinamide]	
> 5000 nM	> 10000 nM			Cn1cnc2cnc(-c3ccc(CNc4nc5ccccc5cc4C(=O)NCc4ccc(F)c(F)c4)s3)cc21 [Example 8.14.2, N-(3,4-difluorobenzyl)-2-({[5-(1-methyl-1H-imidazo [4,5-c]pyridin-6-yl)thiophen-2-yl]methyl}amino)quinoline-3-carboxamide]	
< 100 nM	< 1000 nM			Nc1ncnc2ccc(-c3ccc(CNc4ncc([N+](=O)[O-])cc4C(=O)NCc4ccc(F)c(F)c4)s3)cc12 [Ex. 8.2, 2-{[5-(4-Amino-quinazolin-6-yl)-thiophen-2-ylmethyl]-amino}-N-(3,4-difluoro-benzyl)-5-nitro-nicotinamide]	
< 100 nM	< 1000 nM			C[C@H](NC(=O)c1cc(C#N)cnc1NCc1ccc(-c2ccc3ncnc(N)c3c2)s1)c1ccc(F)c(F)c1 [Example 8.8.2]	
		< 100 nM	< 1000 nM	C[C@H](NC(=O)c1cc(C#N)cnc1NCc1ccc(-c2cnc3[nH]nc(C#CCN(C)C)c3c2)cc1)c1ccc(F)cc1 [Example 146, (S)-5-cyano-2-(4-(3-(3-(dimethylamino)prop-1-ynyl)-1H-pyrazolo[3,4-b]pyridin-5-yl)benzyl-amino)-N-(1-(4-fluorophenyl)ethyl) nicotinamide]	
		< 100 nM	< 1000 nM	O=C(NCc1ccc(F)c(F)c1)c1cc(C(F)(F)F)cnc1NCc1ccc(-c2cnc3[nH]c(=O)[nH]c3c2)cc1 [Example 123, N-(3,4-difluorobenzyl)-2-(4-(2-oxo-2,3-dihydro-1H-imidazo[4,5-b]pyridin-6-yl)benzylamino)-5-(trifluoromethyl) nicotinamide]	
		< 100 nM	< 1000 nM	C[C@H](NC(=O)c1cc(C#N)cnc1NCc1ccc(-c2cnc3c(c2)CCN3)cc1)c1ccc(F)cc1 [Example 139, (S)-5-cyano-2-(4-(3,4-dihydro-1H-pyrrolo [2,3-b]pyridin-5-yl)benzylamino)-N-(1-(4-fluorophenyl)ethyl) nicotinamide]	
< 100 nM	1000 to 10000 nM			O=C(NCc1ccc(F)c(F)c1)c1cccnc1NCCOc1ccc2[nH]c(=O)[nH]c2c1 [Example 16.2, N-(3,4-difluorobenzyl)-2-(2-(2-oxo-2,3-dihydro-1H-benzo[d]imidazol-5-yloxy)-ethylamino)nicotinamide]	
		< 100 nM	1000 to 10000 nM	O=C(NCc1ccc(F)c(F)c1)c1cccnc1NCc1ccc(-c2cnc3[nH]ncc3c2)nc1 [Example 327]	
100 to 1000 nM	1000 to 10000 nM			C[C@H](NC(=O)c1cc(F)cnc1NCc1ccc(-c2cc3c(N)ncnc3cn2)s1)c1ccc(F)c(F)c1 [Example 7.15, 2-({[5-(4-aminopyrido[3,4-d]pyrimidin-6-yl)thiophen-2-yl]methyl}amino)-N-[(1S)-1-(3,4-difluorophenyl)ethyl]-5-fluoropyridine-3-carboxamide]	
> 5000 nM	> 10000 nM			CCCNS(=O)(=O)c1cnc(NCc2ccc(-c3ccc4ncnc(N)c4c3)s2)c(C(=O)NC)c1 [Example 8.6.11, 2-(((5-(4-aminoquinazolin-6-yl)thiophen-2-yl)methyl)amino)-N-methyl-5-(N-propylsulfamoyl) nicotinamide]	
		1000 to 5000 nM	1000 to 10000 nM	Nc1ccc(-c2ccc(CNc3ncccc3C(=O)Nc3ccc(F)cc3)cc2)cn1 [Example 375, 2-(4-(6-aminopyridin-3-yl)benzylamino)-N-(4-fluorophenyl)nicotinamide]	
		< 100 nM	< 1000 nM	C[C@H](NC(=O)c1nc(C#N)cnc1NCc1ccc(-c2cnc(N)c(O[C@@H]3CCNC3)n2)cc1)c1ccc(F)c(F)c1 [Example 161, 3-{4-[5-Amino-6-((R)-pyrrolidin-3-yloxy)-pyrazin-2-yl]-benzylamino}-6-cyano-pyrazine-2-carboxylic acid [(S)-1-(3,4-difluoro-phenyl)-ethyl]-amide]	
		< 100 nM	< 1000 nM	Nc1n[nH]c2ncc(-c3ccc(CNc4ncc(C(F)(F)F)cc4C(=O)Nc4ccc(F)c(F)c4)cc3)cc12 [Example 263, 2-(4-(3-amino-1H-pyrazolo [3,4-b]pyridin-5-yl)benzylamino)-N-(3,4-difluorophenyl)-5-(trifluoromethyl) nicotinamide]	
> 5000 nM	> 10000 nM			Nc1ncnc2ccc(-c3ccc(CNc4ncc(-c5ccccc5)nc4C(=O)NCc4ccc(F)c(F)c4)s3)cc12 [Ex. 10.3, 3-({[5-(4-aminoquinazolin-6-yl)thiophen-2-yl]methyl}amino)-N-(3,4-difluorobenzyl)-6-phenylpyrazine-2-carboxamide]	
